Reference: patent US20100255127A1, “AROMATASE INHIBITOR” (KRACIE PHARMA, LTD., priority 2007, published 2010)

Biological target: T1, aromatase (CYP19) (Homo sapiens, UniProt P11511)
T1 construct: purchased BD Biosciences Inc. (U.S.A.)
T1 sequence (P11511 1-503): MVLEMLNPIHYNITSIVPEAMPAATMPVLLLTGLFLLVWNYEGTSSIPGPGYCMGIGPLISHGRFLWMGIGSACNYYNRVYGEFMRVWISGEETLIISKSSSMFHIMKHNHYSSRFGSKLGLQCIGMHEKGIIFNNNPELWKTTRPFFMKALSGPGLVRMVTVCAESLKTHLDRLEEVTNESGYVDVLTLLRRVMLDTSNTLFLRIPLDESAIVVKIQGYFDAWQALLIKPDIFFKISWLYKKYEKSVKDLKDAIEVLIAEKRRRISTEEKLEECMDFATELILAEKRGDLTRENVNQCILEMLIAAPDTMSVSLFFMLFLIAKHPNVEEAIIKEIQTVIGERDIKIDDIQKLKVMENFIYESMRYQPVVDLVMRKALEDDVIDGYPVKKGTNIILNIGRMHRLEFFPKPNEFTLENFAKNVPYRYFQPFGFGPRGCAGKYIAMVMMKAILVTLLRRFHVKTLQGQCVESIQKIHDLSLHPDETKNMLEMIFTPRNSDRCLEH
Assay: Measurement of aromatase-inhibitory activity (fluorometric HFC formation, 96-well microplate, BD Biosciences reagents)
Format: biochemical
Details: for inhibition at 0.18 µM: concentration 0.18 μM; for inhibition at 0.18 µM / inhibition at 0.53 µM / inhibition at 1.6 µM / inhibition at 4.8 µM: average of three experiments, read-out: Inhibitory rate; for inhibition at 0.53 µM: concentration 0.53 μM; for inhibition at 1.6 µM: concentration 1.60 μM; for inhibition at 4.8 µM: concentration 4.80 μM; for IC50: text b76, components
Experimental: That is, by using a 96-well microplate, after 144 μL of a previously prepared NADPH-producing system solution (NADPH-Cofactor Mix) and 6 μL of an extract solution of test samples were mixed, and incubated at 37° C. for 10 minutes. Then, 100 μL of a solution (Enzyme Substrate Mix) containing an enzyme and a substrate was mixed with the above mixture, and reacted at 37° C. for 30 minutes. Thereafter, 75 μL of a reaction-terminating solution was added to the above, and an amount of a formed HFC (7-hydroxy-4-trifluoromethyl coumarin) which is a metabolite of the substrate was obtained by measuring a fluorescent intensity at an excitation wavelength of 409 nm and a fluorescent wavelength of 538 nm using a plate reader ([…]luor, TECAN). Incidentally, 75 μL of stop solution was added to a blank after incubation for 10 minutes, in place of adding the solution of enzyme and substrate. Aromatase inhibitory rate was calculated by the formula 1.
Aromatase inhibitory rate (%)={1−[…]}×100 [Numerical formula 1]
A=(Absorbance after enzymatic reaction without test sample−Absorbance of blank thereof) B=(Absorbance after enzymatic reaction with each test sample−Absorbance of each blank thereof)
Also, to avoid a non-specific inhibitory action (for example, protein coagulation action due to tannin), a control protein which incidents to the reagent was added to the NADPH-producing system solution.
With regard to solution of test sample, the concentration was stepwisely diluted and an inhibitory rate at each concentration was obtained, and from the results, the concentration of 50% inhibition (IC50 value) was obtained according to the interpolation method.

| SMILES | inhibition at 0.18 µM | inhibition at 0.53 µM | inhibition at 1.6 µM | inhibition at 4.8 µM | IC50 | aromatase-inhibitory activity, concentration dependency in words |
| --- | --- | --- | --- | --- | --- | --- |
| COc1ccc(-c2oc3c(CC=C(C)C)c(O[C@@H]4O[C@H](CO)[C@@H](O)[C@H](O)[C@H]4O)cc(O)c3c(=O)c2O[C@@H]2O[C@@H](C)[C@H](O)[C@@H](O)[C@H]2O)cc1 [Icariin, icariin] | 30.4 ± 1.5% | 48.1 ± 6.9% | 63.5 ± 12.6% | 67.7 ± 21.3% | 754 nM |  |
| COc1cc(C2Oc3cc(C4Oc5cc(O)cc(O)c5C(=O)C4O)ccc3OC2CO)ccc1O (centres unmarked) [Silybin, silybin] | 8.7 ± 9.3% | 12.4 ± 4.6% | 20.6 ± 1.2% | 59.4 ± 7.1% | 4860 nM | concentration-dependent inhibitory activity |
